System: perceived human salt intensity
Test: Human salty taste test: effect on perceived salt intensity (experiments by the inventors)
Format: in vivo
Text: Unlike other mammals, amiloride only slightly reduces the intensity of sodium chloride taste, i.e., by about 15-20% when used at concentrations that specifically modulate ENaC function (Halpern, B. P. (1998) Neuroscience and Behavioral Reviews. 23: 5-47). […] Thus, additional non-ENaC genes are likely involved in human salty taste.

| SMILES | effect on perceived human salt intensity (tested at 300-fold above IC50 for alpha beta gamma ENaC (10-fold over IC50 for delta beta gamma ENaC)) | effect on perceived human salt intensity (tested at 3000-fold above IC50 for alpha beta gamma ENaC (100-fold over IC50 for delta beta gamma ENaC)) |
| --- | --- | --- |
| N=C(N)NC(=O)c1nc(Cl)c(N)nc1N [amiloride] | did not elicit a significant effect | – |
| NC(=Nc1ccccc1)NC(=O)c1nc(Cl)c(N)nc1N [phenamil] | – | did not elicit a significant effect |

Source: US10191050B2, “Rationale, methods, and assays for identifying human and non-human primate taste specific genes and use thereof in taste modulator and therapeutic screening assays” (SENOMYX, INC., priority 2007, dated 2019)
